Experimental findings from patent publication EP4755393A1, “USE OF PROTON PUMP REGULATOR IN PREPARATION OF DRUG” (Shanghai Quietd Biotechnology Co., Ltd., priority 2023, dated 2025) are described below.

One assay deals with Male SD rats. The conditions noted are these: rat, in vivo.
The target in another assay is hATP6V1B2 (Homo sapiens, UniProt P21281). Put plainly: Co-immunoprecipitation of Myc-tagged hATP6V1B2 with GFP-tagged QD202 and site mutants (HEK 293 lysates, western blot). In kind it is binding. The conditions noted are these: expressed from pEGFP-N3 plasmids in HEK 293, anti-GFP IP, FIG. 7A, 7B. Here is the method: Expression plasmids of hATP6V1B2, QD202, site-mutated QD202(D15A), site-mutated QD202(V16A), site-mutated QD202(P13A), and site-mutated QD202(V14A) were constructed respectively. The hATP6V1B2 was co-transfected into HEK 293 cells with the expression plasmids of QD202, site-mutated QD202(D15A), site-mutated QD202(V16A), site-mutated QD202(P13A) and site-mutated QD202(V14A), respectively, and cellular proteins were extracted 48 h after transfection. Table 1: Plasmid sequences
hATP6V1B2, sequence (P21281 whole entry): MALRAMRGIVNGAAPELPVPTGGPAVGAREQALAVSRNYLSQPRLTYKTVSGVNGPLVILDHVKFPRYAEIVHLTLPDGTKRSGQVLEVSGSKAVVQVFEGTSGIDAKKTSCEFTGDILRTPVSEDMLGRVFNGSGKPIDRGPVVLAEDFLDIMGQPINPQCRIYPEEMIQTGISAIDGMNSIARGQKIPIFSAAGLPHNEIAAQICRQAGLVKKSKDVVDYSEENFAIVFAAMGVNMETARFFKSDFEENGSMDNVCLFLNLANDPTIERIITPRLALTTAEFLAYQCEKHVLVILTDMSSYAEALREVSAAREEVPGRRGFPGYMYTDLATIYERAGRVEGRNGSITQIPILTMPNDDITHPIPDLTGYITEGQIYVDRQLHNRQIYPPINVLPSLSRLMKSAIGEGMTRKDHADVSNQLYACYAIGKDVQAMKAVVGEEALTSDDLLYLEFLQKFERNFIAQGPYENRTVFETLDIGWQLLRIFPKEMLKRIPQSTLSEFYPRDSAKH
Protein extraction was performed using Pierce RIPA lysis buffer. Taking cells in a 60 mm culture dish as an example, 500 µL of Pierce RIPA lysis buffer containing protease inhibitors was added. Cells were collected and transferred to a clean 1.5 mL EP tube using a cell scraper. After mixing for 1 h on a rotary mixer at 4°C, the cells were centrifuged at 13,000 rpm at 4°C for 10 min to remove cell debris. The hATP6V1B2 was equally divided into […], which were then mixed separately with the cell lysates transfected with QD202, site-mutated QD202(P13A), site-mutated QD202(V14A), site-mutated QD202(D15A), and site-mutated QD202(V16A), 30 µL of the supernatant was taken and mixed with 10 µL of 4× loading buffer, followed by boiling at 100°C for 5 min and storage at -20°C; 2 µL of the antibody (Anti-GFP, Roche, 11814460001) was added to the remaining 470 µL of the protein lysate, and the mixture was incubated overnight (about 16-18 h) on a rotary shaker at 4°C. 30 µL of Protein G Sepharose beads (Roche, 11243233001) were placed in an EP tube and washed three times with Pierce RIPA lysis buffer to eliminate interference from the original stock solution. The protein that had been incubated with the antibody overnight was added to the Sepharose beads, followed by mixing and incubation at 4°C for 2 h to ensure sufficient binding between the antibody and the protein. The mixture was centrifuged at 4000 rpm for 1 min. The supernatant was aspirated off, followed by the addition of 600 µL of Pierce RIPA lysis buffer. The tube was gently inverted, followed by centrifugation to collect the supernatant. The above steps were repeated three times to wash away non-specifically bound proteins. Finally, 30 µL of 1×loading buffer was added, the mixture was mixed well, heated at 60°C for 20 min to denature the protein, and then stored at -20°C. The protein was examined by western blot (Myc-Tag (9B11) Mouse mAb, CST, 2276S; Anti-GFP, Roche, 11814460001).
The hATP6V1B2 was co-transfected into the host cell line HEK 293 with the expression plasmids of QD202, site-mutated QD202(P13A), site-mutated QD202(V14A), site-mutated QD202(D15A) and site-mutated QD202(V16A), respectively. […] It is therefore hypothesized that valine at position 16 of QD202 is one of the key amino acids for the binding between hATP6V1B2 and QD202, whereas proline at position 13, valine at position 14 and aspartic acid at position 15 can be replaced with alanine, as illustrated in FIG. 7A and FIG. 7B.

Another assay has as its system homozygous DIR-Ki mice. Put plainly: Novel object recognition test in DIR-Ki mice. It counts as in vivo. As to conditions: intravenous, 7 consecutive days, FIG. 15. Here is the method:
Thirty homozygous DIR-Ki mice were divided into three groups: the control group (HO+PBS), the QD202 1 mg/kg group (HO+QD202 1 mpk), and the QD202 5 mg/kg group (HO+QD202 5 mpk). After 7 consecutive days of intravenous administration in the QD202-treated groups, the novel object recognition test was initiated.
Square PVC plastic box (dimensions: 25 cm × 25 cm × 30 cm), two identical size 1 batteries, one plastic toy of the same height as the batteries, experimental observation box, camera, and video recording software
On the day of the experiment, the mice were allowed to acclimatize to the experimental room for 30 min in advance. The test was divided into an acclimation period and a testing period.
Familiarization phase: Two identical batteries were placed 5 cm away from a box wall, with a 5 cm gap between the two batteries. The mice were placed in the center of the area and allowed to explore freely for 10 min. […]
Testing period: A toy with size and height similar to those of the battery was randomly used to replace one battery and placed in the same position as the original battery. […] The entire process was recorded using a camera. […] After the experiment, the time taken for the mice to explore novel and familiar objects in the video was counted manually, and the time recognition index of the novel objects was calculated. […]

Entries after “also recorded” stand apart in the source; their conditions may differ. Ends that are not written are not given here.

For “QD202: Polypeptide synthesized according to the amino acid sequence set forth in SEQ ID NO: 1; ATP6V1B2 regulator / DIR regulator (YGRKKRRQRRRSPVDVVCS; not fully specified)”, in the assay with Male SD rats, the infarct volume result is “lower than that of the Model + QD202 placebo group, with a statistical difference (p<0.05); also recorded: lower than that of the Model + QD202 placebo group, with extremely significant statistical differences (p<0.001)”. Besides, the “binding to Myc-tagged hATP6V1B2 (co-immunoprecipitation)” value in the assay with hATP6V1B2 is recorded as “bind to”. For the same substance, the “novel object recognition index” value with homozygous DIR-Ki mice (1.0 mg/kg) and with homozygous DIR-Ki mice (5.0 mg/kg) was “significantly improved” throughout.
